SMILES | melting point [°C]
COc1cc(-c2nc(NCCC(=O)O)c3c(C)c(C#N)sc3n2)cc(OC)c1OC [Example 87, N-[6-Cyano-5-methyl-2-(3,4,5-trimethoxyphenyl)thieno[2,3-d]pyrimidin-4-yl]-beta-alanine] | 222 to 225
COc1ccc(-c2nc(N(C)C)c3c(C)c(C#N)sc3n2)cc1OC [Example 46, 2-(3,4-Dimethoxyphenyl)-4-(dimethylamino)-5-methylthieno[2,3-d]pyrimidine-6-carbonitrile] | 198 to 200
CNc1nc(Cc2cc(OC)c(OC)c(OC)c2)nc2sc(C#N)c(C)c12 [Example 110, 5-Methyl-4-(methylamino)-2-(3,4,5-trimethoxybenzyl)thieno[2,3-d]pyrimidine-6-carbonitrile] | 194 to 195
CCN(C)c1nc(-c2ccc(OC)c(OC)c2)nc2sc(C#N)c(C)c12 [Example 26, 2-(3,4-Dimethoxyphenyl)-4-[ethyl(methyl)amino]-5-methylthieno[2,3-d]pyrimidine-6-carbonitrile] | 133 to 135
COc1cc(-c2nc(-n3nccn3)c3c(C)c(C#N)sc3n2)cc(OC)c1OC [Example 90, 5-Methyl-4-(2H-1,2,3-triazol-2-yl)-2-(3,4,5-trimethoxyphenyl)thieno[2,3-d]pyrimidine-6-carbonitrile] | 208 to 210
Cc1c(C#N)sc2nc(-c3ccc(C(F)(F)F)cc3)nc(N3CCN(C)CC3)c12 [Example 33, 5-Methyl-4-(4-methylpiperazin-1-yl)-2-[4-(trifluoromethyl)phenyl]thieno[2,3-d]pyrimidine-6-carbonitrile] | 187 to 189
CCN(C)c1nc(-c2ccncc2)nc2sc(C#N)c(C)c12 [Example 38, 4-[Ethyl(methyl)amino]-5-methyl-2-pyridin-4-ylthieno[2,3-d]pyrimidine-6-carbonitrile] | 162 to 164
CCN(CC)c1nc(-c2ccncc2)nc2sc(C#N)c(C)c12 [Example 45, 4-(Diethylamino)-5-methyl-2-pyridin-4-ylthieno[2,3-d]pyrimidine-6-carbonitrile] | 169 to 171
CCCCNc1nc(-c2cc(OC)c(OC)c(OC)c2)nc2sc(C#N)c(C)c12 [Example 69, 4-(Butylamino)-5-methyl-2-(3,4,5-trimethoxyphenyl)thieno[2,3-d]pyrimidine-6-carbonitrile] | 192 to 194
Cc1c(C#N)sc2nc(-c3ccc4c(c3)OCO4)nc(N3CCN(C)CC3)c12 [Example 34] | 196 to 197
COc1ccc(-c2nc(N(C)C)c3c(C)c(C#N)sc3n2)cc1 [Example 21, 4-(Dimethylamino)-2-(4-methoxyphenyl)-5-methylthieno[2,3-d]pyrimidine-6-carbonitrile] | 123 to 125
CCN(C)c1nc(-c2cc(OC)c(OC)c(OC)c2)nc2sc(C#N)c(C)c12 [Example 39, 4-[Ethyl(methyl)amino]-5-methyl-2-(3,4,5-trimethoxyphenyl)thieno[2,3-d]pyrimidine-6-carbonitrile] | 163 to 164
COc1ccc(Cc2nc(N3CCOCC3)c3c(C)c(C#N)sc3n2)cc1OC [Example 92, 2-(3,4-Dimethoxybenzyl)-5-methyl-4-morpholin-4-ylthieno[2,3-d]pyrimidine-6-carbonitrile] | 67 to 70
CCN(C)c1nc(-c2ccc(OC)cc2)nc2sc(C#N)c(C)c12 [Example 17, 4-[Ethyl(methyl)amino]-2-(4-methoxyphenyl)-5-methylthieno[2,3-d]pyrimidine-6-carbonitrile] | 122 to 123
COc1ccc(-c2nc(N3CCCC3)c3c(C)c(C#N)sc3n2)cc1 [Example 11, 2-(4-Methoxyphenyl)-5-methyl-4-pyrrolidin-1-ylthieno[2,3-d]pyrimidine-6-carbonitrile] | 176 to 178
COc1cc(-c2nc(-n3ccnc3)c3c(C)c(C#N)sc3n2)cc(OC)c1OC [Example 89, 4-(1H-Imidazol-1-yl)-5-methyl-2-(3,4,5-trimethoxyphenyl)thieno[2,3-d]pyrimidine-6-carbonitrile] | 238 to 240
COc1ccc(-c2nc(N3CCOCC3)c3c(C)c(C#N)sc3n2)cc1 [Example 22, 2-(4-Methoxyphenyl)-5-methyl-4-morpholin-4-ylthieno[2,3-d]pyrimidine-6-carbonitrile] | 204 to 206
Cc1c(C#N)sc2nc(-c3ccc4c(c3)OCO4)nc(N(C)CCO)c12 [Example 43, 2-(1,3-Benzodioxol-5-yl)-4-[(2-hydroxyethyl)(methyl)amino]-5-methylthieno[2,3-d]pyrimidine-6-carbonitrile] | 195 to 197
Cc1c(C#N)sc2nc(-c3ccc([N+](=O)[O-])cc3)nc(N3CCNCC3)c12 [Example 13, 5-Methyl-2-(4-nitrophenyl)-4-piperazin-1-ylthieno[2,3-d]pyrimidine-6-carbonitrile] | 250

SMILES | melting point [°C]
COc1cc(-c2nc(-n3cncn3)c3c(C)c(C#N)sc3n2)cc(OC)c1OC [Example 91, 5-Methyl-4-(1H-1,2,4-triazol-1-yl)-2-(3,4,5-trimethoxyphenyl)thieno[2,3-d]pyrimidine-6-carbonitrile] | 236 to 240
COc1ccc(-c2nc(N3CCN(C)CC3)c3c(C)c(C#N)sc3n2)cc1 [Example 9, 2-(4-Methoxyphenyl)-5-methyl-4-(4-methylpiperazin-1-yl)thieno[2,3-d]pyrimidine-6-carbonitrile] | > 250
COc1cc(-c2nc(-n3cccn3)c3c(C)c(C#N)sc3n2)cc(OC)c1OC [Example 88, 5-Methyl-4-(1H-pyrazol-1-yl)-2-(3,4,5-trimethoxyphenyl)thieno[2,3-d]pyrimidine-6-carbonitrile] | 209 to 214
CCN(CC)c1nc(-c2ccc(OC)c(OC)c2)nc2sc(C#N)c(C)c12 [Example 20, 4-(Diethylamino)-2-(3,4-dimethoxyphenyl)-5-methylthieno[2,3-d]pyrimidine-6-carbonitrile] | 159 to 161
Cc1c(C#N)sc2nc(Cc3ccccc3)nc(N3CCOCC3)c12 [Example 58, 2-Benzyl-5-methyl-4-morpholin-4-yl-thieno[2,3-d]pyrimidine-6-carbonitrile] | 88 to 90
COc1cc(-c2nc(N(C)CCN)c3c(C)c(C#N)sc3n2)cc(OC)c1OC [Example 86, 4-[(2-Aminoethyl)(methyl)amino]-5-methyl-2-(3,4,5-trimethoxyphenyl)thieno[2,3-d]pyrimidine-6-carbonitrile] | > 290
COc1cc(-c2nc(N3CCOCC3)c3c(C)c(C#N)sc3n2)cc(OC)c1OC [Example 51, 5-Methyl-4-morpholin-4-yl-2-(3,4,5-trimethoxy-phenyl)-thieno[2,3-d]pyrimidine-6-carbonitrile] | > 250
COc1cc(Cc2nc(NC(C)C)c3c(C)c(C#N)sc3n2)cc(OC)c1OC [Example 113, 4-(Isopropylamino)-5-methyl-2-(3,4,5-trimethoxybenzyl)thieno[2,3-d]pyrimidine-6-carbonitrile] | 143 to 147
CCCNc1nc(-c2ccc(OC)c(OC)c2)nc2sc(C#N)c(C)c12 [Example 47, 2-(3,4-Dimethoxyphenyl)-5-methyl-4-(propylamino)thieno[2,3-d]pyrimidine-6-carbonitrile] | 179 to 181
Cc1c(C#N)sc2nc(-c3ccccc3)nc(N3CCN(C)CC3)c12 [Example 50, 5-Methyl-4-(4-methyl-piperazin-1-yl)-2-phenyl-thieno[2,3-d-]pyrimidine-6-carbonitrile] | 223 to 225
C=CCN(C)c1nc(Cc2ccc(OC)c(OC)c2)nc2sc(C#N)c(C)c12 [Example 102, 4-[Allyl(methyl)amino]-2-(3,4-dimethoxybenzyl)-5-methylthieno[2,3-d]pyrimidine-6-carbonitrile] | 98 to 100
Cc1ccc(-c2nc(N3CCN(C)CC3)c3c(C)c(C#N)sc3n2)cc1 [Example 27, 5-Methyl-2-(4-methylphenyl)-4-(4-methylpiperazin-1-yl)thieno[2,3-d]pyrimidine-6-carbonitrile] | 207 to 209
CCC(C)Nc1nc(-c2cc(OC)c(OC)c(OC)c2)nc2sc(C#N)c(C)c12 (stereo not shown) [Example 71, 4-(sec-Butylamino)-5-methyl-2-(3,4,5-trimethoxyphenyl)thieno[2,3-d]pyrimidine-6-carbonitrile] | 91 to 93
C=CCN(C)c1nc(-c2ccc(OC)cc2)nc2sc(C#N)c(C)c12 [Example 29, 4-[Allyl(methyl)amino]-2-(4-methoxyphenyl)-5-methylthieno[2,3-d]pyrimidine-6-carbonitrile] | 126 to 128
COc1ccc(Cc2nc(N(C)CCO)c3c(C)c(C#N)sc3n2)cc1OC [Example 105, 2-(3,4-Dimethoxybenzyl)-4-[(2-hydroxyethyl)(methyl)amino]-5-methylthieno[2,3-d]pyrimidine-6-carbonitrile] | 62 to 63
CNc1nc(Cc2ccc(OC)c(OC)c2)nc2sc(C#N)c(C)c12 [Example 94, 2-(3,4-Dimethoxybenzyl)-5-methyl-4-(methylamino)thieno[2,3-d]pyrimidine-6-carbonitrile] | 161 to 163
Cc1c(C#N)sc2nc(CCCc3ccccc3)nc(N3CCN(C)CC3)c12 [Example 130, 5-Methyl-4-(4-methylpiperazin-1-yl)-2-(3-phenylpropyl)thieno[2,3-d]pyrimidine-6-carbonitrile] | 101 to 103
Cc1ccc(-c2nc(N3CCOCC3)c3c(C)c(C#N)sc3n2)cc1 [Example 32, 5-Methyl-2-(4-methylphenyl)-4-morpholin-4-ylthieno[2,3-d]pyrimidine-6-carbonitrile] | 206 to 207

Source: patent US7662814B2, “4-aminothieno[2,3-d]pyrimidine-6-carbonitrile derivatives as PDE7 inhibitors” (Laboratorios Almirall, S.A., priority 2003, dated 2010)
